# Experimental data from patent US11759455B2, “Substituted 1H-imidazo[4,5-b]pyridin-2(3H)-ones and their use as GLUN2B receptor modulators” (JANSSEN PHARMACEUTICA NV, priority 2016, dated 2023).
# Target: T1, human GluN1/GluN2B NMDA receptors (Homo sapiens, UniProt Q13224)
# T1 construct: expressed in transfected cells
# Test: Cell-based calcium flux (FLIPR) assay on cloned human NR1/NR2B ion channels expressed in mammalian cells (standard and HTS buffer variants);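 also: stable Tet-On inducible cell line, Ca2+ influx triggered by glutamate at about EC40 plus 10 µM glycine, fluorescent dye read-out over 5 min, normalized to control wells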
# Conditions: standard assay buffer (0.5 mM MgCl2 in dye loading buffer; 137 mM NaCl, 4 mM KCl in assay buffer), human GluN1/GluN2B, read-out: NR2B IC50 (μM) standard assay
# T1 sequence (Q13224 27-1484, other chains not shown): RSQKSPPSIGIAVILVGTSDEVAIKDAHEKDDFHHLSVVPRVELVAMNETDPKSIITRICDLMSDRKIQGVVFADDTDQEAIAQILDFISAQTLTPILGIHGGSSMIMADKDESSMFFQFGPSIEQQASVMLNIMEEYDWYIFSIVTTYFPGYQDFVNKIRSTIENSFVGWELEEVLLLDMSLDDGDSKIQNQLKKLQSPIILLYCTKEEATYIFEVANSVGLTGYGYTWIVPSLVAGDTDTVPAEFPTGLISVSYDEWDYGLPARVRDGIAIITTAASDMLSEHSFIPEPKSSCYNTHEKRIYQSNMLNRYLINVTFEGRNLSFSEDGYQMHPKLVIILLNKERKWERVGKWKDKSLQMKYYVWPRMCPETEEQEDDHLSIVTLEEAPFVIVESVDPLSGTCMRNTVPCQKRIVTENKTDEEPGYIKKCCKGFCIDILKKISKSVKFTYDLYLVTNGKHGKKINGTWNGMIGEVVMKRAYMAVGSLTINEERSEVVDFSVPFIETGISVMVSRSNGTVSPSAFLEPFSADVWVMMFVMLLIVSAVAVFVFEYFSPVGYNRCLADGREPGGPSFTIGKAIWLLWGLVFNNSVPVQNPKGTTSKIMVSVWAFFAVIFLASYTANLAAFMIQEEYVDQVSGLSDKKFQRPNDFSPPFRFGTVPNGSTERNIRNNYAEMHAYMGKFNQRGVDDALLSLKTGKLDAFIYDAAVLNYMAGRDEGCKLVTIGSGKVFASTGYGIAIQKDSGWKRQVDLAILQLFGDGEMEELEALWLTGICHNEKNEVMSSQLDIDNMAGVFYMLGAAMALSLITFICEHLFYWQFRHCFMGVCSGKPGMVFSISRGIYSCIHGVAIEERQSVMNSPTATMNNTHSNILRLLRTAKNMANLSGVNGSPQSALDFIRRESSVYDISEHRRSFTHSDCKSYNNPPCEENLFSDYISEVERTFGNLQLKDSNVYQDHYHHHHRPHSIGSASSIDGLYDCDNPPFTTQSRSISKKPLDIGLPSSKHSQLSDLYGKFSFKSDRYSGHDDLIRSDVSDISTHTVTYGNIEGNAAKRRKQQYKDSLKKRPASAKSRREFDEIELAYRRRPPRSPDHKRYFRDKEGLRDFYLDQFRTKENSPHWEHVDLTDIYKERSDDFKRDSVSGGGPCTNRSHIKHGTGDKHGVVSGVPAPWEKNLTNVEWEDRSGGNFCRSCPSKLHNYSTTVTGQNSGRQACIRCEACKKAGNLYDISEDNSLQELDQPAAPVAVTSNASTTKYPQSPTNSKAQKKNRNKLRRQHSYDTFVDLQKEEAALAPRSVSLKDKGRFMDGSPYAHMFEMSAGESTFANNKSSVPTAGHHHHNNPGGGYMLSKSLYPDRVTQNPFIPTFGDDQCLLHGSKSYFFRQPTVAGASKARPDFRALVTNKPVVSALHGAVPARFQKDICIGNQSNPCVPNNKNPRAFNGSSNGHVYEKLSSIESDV
row,IC50 [µM],SMILES
1,0.016,"Cn1c(=O)n(Cc2cccnn2)c2cc(-c3ccc(F)c(OC(F)F)c3)cnc21 [Example 542, 6-[3-(Difluoromethoxy)-4-fluoro-phenyl]-3-methyl-1-(pyridazin-3-ylmethyl)imidazo[4,5-b]pyridin-2-one]"
2,0.028,"Cn1c(=O)n(Cc2cccnn2)c2cc(-c3ccc(Cl)c(OC(F)F)c3)cnc21 [Example 543, 6-[4-Chloro-3-(difluoromethoxy)phenyl]-3-methyl-1-(pyridazin-3-ylmethyl)imidazo[4,5-b]pyridin-2-one]"
3,0.09,"Cn1c(=O)n(Cc2cncc(F)c2)c2cc(-c3ccc(Cl)c(OC(F)F)c3)cnc21 [Example 544, 6-[4-Chloro-3-(difluoromethoxy)phenyl]-1-[(5-fluoro-3-pyridyl)methyl]-3-methyl-imidazo[4,5-b]pyridin-2-one]"
4,0.512,"Cn1c(=O)n(Cc2csnn2)c2cc(-c3ccc(F)c(F)c3)cnc21 [Example 545, 6-(3,4-Difluorophenyl)-3-methyl-1-(thiadiazol-4-ylmethyl)imidazo[4,5-b]pyridin-2-one]"
5,0.024,"Cn1c(=O)n(Cc2cncc(F)c2)c2cc(-c3ccc(F)c(C(F)F)c3)cnc21 [Example 546, 6-[3-(Difluoromethyl)-4-fluoro-phenyl]-1-[(5-fluoro-3-pyridyl)methyl]-3-methyl-imidazo[4,5-b]pyridin-2-one]"
6,0.036,"Cn1c(=O)n(Cc2cncc(F)c2)c2cc(-c3ccc(F)c(OC(F)F)c3)cnc21 [Example 547, 6-[3-(Difluoromethoxy)-4-fluoro-phenyl]-1-[(5-fluoro-3-pyridyl)methyl]-3-methyl-imidazo[4,5-b]pyridin-2-one]"
7,0.185,"Cn1c(=O)n(Cc2csnn2)c2cc(-c3cccc(C(F)(F)F)c3)cnc21 [Example 548, 3-Methyl-1-(thiadiazol-4-ylmethyl)-6-[3-(trifluoromethyl)phenyl]imidazo[4,5-b]pyridin-2-one]"
8,0.467,"Cn1cc(Cn2c(=O)n(C)c3ncc(-c4ccc(F)c(F)c4)cc32)nn1 [Example 549, 6-(3,4-Difluorophenyl)-3-methyl-1-[(1-methyltriazol-4-yl)methyl]imidazo[4,5-b]pyridin-2-one]"
9,0.697,"Cn1cc(Cn2c(=O)n(C)c3ncc(-c4ccc(F)c(F)c4)cc32)cn1 [Example 550, 6-(3,4-Difluorophenyl)-3-methyl-1-[(1-methylpyrazol-4-yl)methyl]imidazo[4,5-b]pyridin-2-one]"
10,0.19,"Cn1cc(Cn2c(=O)n(C)c3ncc(-c4cccc(C(F)(F)F)c4)cc32)cn1 [Example 551, 3-Methyl-1-[(1-methylpyrazol-4-yl)methyl]-6-[3-(trifluoromethyl)phenyl]imidazo[4,5-b]pyridin-2-one]"
11,0.13,"Cn1cc(Cn2c(=O)n(C)c3ncc(-c4cccc(C(F)(F)F)c4)cc32)nn1 [Example 552, 3-Methyl-1-[(1-methyltriazol-4-yl)methyl]-6-[3-(trifluoromethyl)phenyl]imidazo[4,5-b]pyridin-2-one]"
12,0.726,"Cc1ccc(-c2cnc3c(c2)n(Cc2cn(C)nn2)c(=O)n3C)s1 [Example 553, 3-Methyl-6-(5-methyl-2-thienyl)-1-[(1-methyltriazol-4-yl)methyl]imidazo[4,5-b]pyridin-2-one]"
13,0.533,"Cc1nnc(Cn2c(=O)n(C)c3ncc(-c4ccc(C)s4)cc32)o1 [Example 554, 3-Methyl-1-[(5-methyl-1,3,4-oxadiazol-2-yl)methyl]-6-(5-methyl-2-thienyl)imidazo[4,5-b]pyridin-2-one]"
14,1.31,"Cc1ccc(-c2cnc3c(c2)n(Cc2cnn(C)c2)c(=O)n3C)s1 [Example 555, 3-Methyl-1-[(1-methylpyrazol-4-yl)methyl]-6-(5-methyl-2-thienyl)imidazo[4,5-b]pyridin-2-one]"
15,0.363,"Cc1ccc(-c2cnc3c(c2)n(Cc2csnn2)c(=O)n3C)s1 [Example 556, 3-Methyl-6-(5-methyl-2-thienyl)-1-(thiadiazol-4-ylmethyl)imidazo[4,5-b]pyridin-2-one]"
16,0.671,"Cc1noc(Cn2c(=O)n(C)c3ncc(-c4ccc(C)s4)cc32)n1 [Example 557, 3-Methyl-1-[(3-methyl-1,2,4-oxadiazol-5-yl)methyl]-6-(5-methyl-2-thienyl)imidazo[4,5-b]pyridin-2-one]"
17,0.216,"Cc1cc(Cn2c(=O)n(C)c3ncc(-c4ccc(C)s4)cc32)no1 [Example 558, 3-Methyl-1-[(5-methylisoxazol-3-yl)methyl]-6-(5-methyl-2-thienyl)imidazo[4,5-b]pyridin-2-one]"
18,0.28,"Cn1cc(Cn2c(=O)n(C)c3ncc(-c4ccc(C(F)F)s4)cc32)nn1 [Example 559, 6-[5-(Difluoromethyl)-2-thienyl]-3-methyl-1-[(1-methyltriazol-4-yl)methyl]imidazo[4,5-b]pyridin-2-one]"
19,0.304,"Cc1nnc(Cn2c(=O)n(C)c3ncc(-c4ccc(C(F)F)s4)cc32)o1 [Example 560, 6-[5-(Difluoromethyl)-2-thienyl]-3-methyl-1-[(5-methyl-1,3,4-oxadiazol-2-yl)methyl]imidazo[4,5-b]pyridin-2-one]"

row,IC50 [µM],SMILES
1,0.354,"Cn1cc(Cn2c(=O)n(C)c3ncc(-c4ccc(C(F)F)s4)cc32)cn1 [Example 561, 6-[5-(Difluoromethyl)-2-thienyl]-3-methyl-1-[(1-methylpyrazol-4-yl)methyl]imidazo[4,5-b]pyridin-2-one]"
2,0.166,"Cn1c(=O)n(Cc2csnn2)c2cc(-c3ccc(C(F)F)s3)cnc21 [Example 562, 6-[5-(Difluoromethyl)-2-thienyl]-3-methyl-1-(thiadiazol-4-ylmethyl)imidazo[4,5-b]pyridin-2-one]"
3,0.316,"Cc1noc(Cn2c(=O)n(C)c3ncc(-c4ccc(C(F)F)s4)cc32)n1 [Example 563, 6-[5-(Difluoromethyl)-2-thienyl]-3-methyl-1-[(3-methyl-1,2,4-oxadiazol-5-yl)methyl]imidazo[4,5-b]pyridin-2-one]"
4,0.087,"Cc1cc(Cn2c(=O)n(C)c3ncc(-c4ccc(C(F)F)s4)cc32)no1 [Example 564, 6-[5-(Difluoromethyl)-2-thienyl]-3-methyl-1-[(5-methylisoxazol-3-yl)methyl]imidazo[4,5-b]pyridin-2-one]"
5,0.374,"Cn1cc(Cn2c(=O)n(C)c3ncc(-c4ccc(C(F)(F)F)s4)cc32)cn1 [Example 565, 3-Methyl-1-[(1-methylpyrazol-4-yl)methyl]-6-[5-(trifluoromethyl)-2-thienyl]imidazo[4,5-b]pyridin-2-one]"
6,0.349,"Cn1cc(Cn2c(=O)n(C)c3ncc(-c4ccc(C(F)(F)F)s4)cc32)nn1 [Example 566, 3-Methyl-1-[(1-methyltriazol-4-yl)methyl]-6-[5-(trifluoromethyl)-2-thienyl]imidazo[4,5-b]pyridin-2-one]"
7,0.146,"Cc1nnc(Cn2c(=O)n(C)c3ncc(-c4ccc(C(F)(F)F)s4)cc32)o1 [Example 567, 3-Methyl-1-[(5-methyl-1,3,4-oxadiazol-2-yl)methyl]-6-[5-(trifluoromethyl)-2-thienyl]imidazo[4,5-b]pyridin-2-one]"
8,0.305,"Cn1c(=O)n(Cc2csnn2)c2cc(-c3ccc(C(F)(F)F)s3)cnc21 [Example 568, 3-Methyl-1-(thiadiazol-4-ylmethyl)-6-[5-(trifluoromethyl)-2-thienyl]imidazo[4,5-b]pyridin-2-one]"
9,0.412,"Cc1noc(Cn2c(=O)n(C)c3ncc(-c4ccc(C(F)(F)F)s4)cc32)n1 [Example 569, 3-Methyl-1-[(3-methyl-1,2,4-oxadiazol-5-yl)methyl]-6-[5-(trifluoromethyl)-2-thienyl]imidazo[4,5-b]pyridin-2-one]"
10,0.139,"Cc1cc(Cn2c(=O)n(C)c3ncc(-c4ccc(C(F)(F)F)s4)cc32)no1 [Example 570, 3-Methyl-1-[(5-methylisoxazol-3-yl)methyl]-6-[5-(trifluoromethyl)-2-thienyl]imidazo[4,5-b]pyridin-2-one]"
11,0.037,"Cc1cc(Cn2c(=O)n(C)c3ncc(-c4ccc(F)c(C)c4F)cc32)no1 [Example 571, 6-(2,4-Difluoro-3-methyl-phenyl)-3-methyl-1-[(5-methylisoxazol-3-yl)methyl]imidazo[4,5-b]pyridin-2-one]"
12,0.15,"Cc1c(F)ccc(-c2cnc3c(c2)n(Cc2cnn(C)c2)c(=O)n3C)c1F [Example 572, 6-(2,4-Difluoro-3-methyl-phenyl)-3-methyl-1-[(1-methylpyrazol-4-yl)methyl]imidazo[4,5-b]pyridin-2-one]"
13,0.043,"Cc1noc(Cn2c(=O)n(C)c3ncc(-c4ccc(F)c(C)c4F)cc32)n1 [Example 573, 6-(2,4-Difluoro-3-methyl-phenyl)-3-methyl-1-[(3-methyl-1,2,4-oxadiazol-5-yl)methyl]imidazo[4,5-b]pyridin-2-one]"
14,0.046,"Cc1c(F)ccc(-c2cnc3c(c2)n(Cc2cn(C)nn2)c(=O)n3C)c1F [Example 574, 6-(2,4-Difluoro-3-methyl-phenyl)-3-methyl-1-[(1-methyltriazol-4-yl)methyl]imidazo[4,5-b]pyridin-2-one]"
15,0.028,"Cc1nnc(Cn2c(=O)n(C)c3ncc(-c4ccc(F)c(C)c4F)cc32)o1 [Example 575, 6-(2,4-Difluoro-3-methyl-phenyl)-3-methyl-1-[(5-methyl-1,3,4-oxadiazol-2-yl)methyl]imidazo[4,5-b]pyridin-2-one]"
16,0.05,"Cc1c(F)ccc(-c2cnc3c(c2)n(Cc2csnn2)c(=O)n3C)c1F [Example 576, 6-(2,4-Difluoro-3-methyl-phenyl)-3-methyl-1-(thiadiazol-4-ylmethyl)imidazo[4,5-b]pyridin-2-one]"
17,0.064,"CN(CCF)C(=O)Cn1c(=O)n(C)c2ncc(-c3ccc(C(F)(F)F)s3)cc21 [Example 577, N-(2-Fluoroethyl)-N-methyl-2-[3-methyl-2-oxo-6-[5-(trifluoromethyl)-2-thienyl]imidazo[4,5-b]pyridin-1-yl]acetamide]"
18,0.014,"O=C(Cn1c(=O)[nH]c2ncc(-c3ccc(C(F)(F)F)s3)cc21)N1CC(F)C1 [Example 578, 1-[2-(3-Fluoroazetidin-1-yl)-2-oxo-ethyl]-6-[5-(trifluoromethyl)-2-thienyl]-3H-imidazo[4,5-b]pyridin-2-one]"
